In US20210323950A1, “HERBICIDALLY ACTIVE BICYCLIC BENZOYLPYRAZOLES” (Bayer Aktiengesellschaft, priority 2018, published 2021):

Experiments:
Assay type in all cases: in vivo
[1] = system: Abutilon theophrasti (ABUTH); test: Pre-emergence herbicidal action against ABUTH; settings: scored visually after about 3 weeks vs untreated controls
Summary of the method: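 Sown pots had WP or EC formulations sprayed onto the covering soil as aqueous suspension/emulsion with 0.5% additive, then were kept in a greenhouse. After about 3 weeks, damage was scored visually as % versus untreated controls (100% = plants dead, 0% = like controls).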

[2] = system: Setaria viridis (SETVI); test: Pre-emergence herbicidal action against SETVI; settings: scored visually after about 3 weeks vs untreated controls
[3] = system: Amaranthus retroflexus (AMARE); test: Pre-emergence herbicidal action against AMARE; settings: scored visually after about 3 weeks vs untreated controls
Summary of the method: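 Formulated compounds (WP or EC) sprayed onto soil covering sown seeds, with 0.5% additive at […] water (converted). Greenhouse-grown about 3 weeks, then damage scored visually as percent versus untreated controls (100% = dead, 0% = like control).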

[4] = system: Echinochloa crus-galli (ECHCG); test: Pre-emergence herbicidal action against ECHCG; settings: scored visually after about 3 weeks vs untreated controls
[5] = system: Amaranthus retroflexus (AMARE); test: Post-emergence herbicidal action against AMARE; settings: 20 g/ha, post-emergence at one-leaf stage, rated visually after about 3 weeks vs untreated controls
Summary of the method: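 Greenhouse-grown plants in sandy loam were treated at the one-leaf stage, 2–3 weeks after sowing. Activity was rated visually after about 3 weeks against untreated controls (100% = plants dead, 0% = like control).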

[6] = system: Abutilon theophrasti (ABUTH); test: Post-emergence herbicidal action against ABUTH; settings: 20 g/ha, post-emergence at one-leaf stage, rated visually after about 3 weeks vs untreated controls
Protocol: ABUTH: Abutilon theophrasti 2. Post-Emergence Herbicidal Action and Crop Plant Compatibility Seeds of monocotyledonous and dicotyledonous weeds and crop plants are placed in sandy loam in plastic or organic planting pots, covered with soil and cultivated in a greenhouse under controlled growth conditions. 2 to 3 weeks after sowing, the test plants are treated at the one-leaf stage. The compounds of the invention, formulated in the form of wettable powders (WP) or as emulsion concentrates (EC), are then sprayed onto the green parts of the plants as aqueous suspension or emulsion with addition of 0.5% additive at a water application rate of […] (converted). After the test plants had been kept in the greenhouse under optimum growth conditions for about 3 weeks, the activity of the preparations is rated visually in comparison to untreated controls. The tables below show the herbicidal activity of numerous compounds according to the invention against important harmful plants. For example, 100% activity=the plants have died, 0% activity=like control plants.

[7] = system: Echinochloa crus-galli (ECHCG); test: Post-emergence herbicidal action against ECHCG; settings: 20 g/ha, post-emergence at one-leaf stage, rated visually after about 3 weeks vs untreated controls
Summary of the method: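 Greenhouse plants in sandy loam were sprayed at the one-leaf stage, 2-3 weeks after sowing. Activity was scored visually after about 3 weeks against untreated controls (0% = like control, 100% = dead).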

With `Cn1ncc(C(=O)c2ccc(C(F)(F)F)c3c2OCS3)c1O` [Example 1-13] the “Pre-emergence action against ABUTH” value ([1]; 320 g/ha) was 100%, the “Pre-emergence action against SETVI” value ([2]; 320 g/ha) was 100% and the “Pre-emergence action against AMARE” value ([3]; 320 g/ha) was 100%. The “Pre-emergence action against ECHCG” value ([4]; 320 g/ha) was 100%, the “Post-emergence action against AMARE” value [5] was 90% and the “Post-emergence action against ABUTH” value [6] was 90%. The “Post-emergence action against ECHCG” value [7] was 90%.

`Cn1ncc(C(=O)c2ccc(C(F)(F)F)c3c2OCCS3)c1O` [Example 1-15] was tested, and the “Pre-emergence action against SETVI” value ([2]; 80 g/ha) was 100%, the “Pre-emergence action against AMARE” value ([3]; 80 g/ha) was 100% and the “Pre-emergence action against ECHCG” value ([4]; 80 g/ha) was 80%. The “Post-emergence action against AMARE” value [5] was 80% and the “Post-emergence action against ECHCG” value [7] was 80%.

In the case of `Cn1ncc(C(=O)c2ccc(C(F)(F)F)c3c2OC[S+]3[O-])c1O` (stereo not shown) [Example 1-28], the “Pre-emergence action against ABUTH” value ([1]; 320 g/ha) is reported as 100%, the “Pre-emergence action against SETVI” value ([2]; 320 g/ha) is reported as 100% and the “Pre-emergence action against ECHCG” value ([4]; 320 g/ha) is reported as 100%. The “Post-emergence action against AMARE” value [5] was 100%, the “Post-emergence action against ABUTH” value [6] was 90% and the “Post-emergence action against ECHCG” value [7] was 90%.

For `Cn1ncc(C(=O)c2ccc(C(F)(F)F)c3c2OCC[S+]3[O-])c1O` (stereo not shown) [Example 1-30], the “Pre-emergence action against ABUTH” value ([1]; 80 g/ha) was 100%, the “Pre-emergence action against SETVI” value ([2]; 80 g/ha) was 100% and the “Pre-emergence action against AMARE” value ([3]; 80 g/ha) was 100%. For the same molecule, the “Pre-emergence action against ECHCG” value ([4]; 80 g/ha) was 100%, the “Post-emergence action against AMARE” value [5] was 100% and the “Post-emergence action against ABUTH” value [6] was 80%. The “Post-emergence action against ECHCG” value [7] was 100%.

`CCn1ncc(C(=O)c2ccc(C(F)(F)F)c3c2OCC[S+]3[O-])c1O` (stereo not shown) [Example 1-35] was tested, and the “Pre-emergence action against ABUTH” value ([1]; 80 g/ha) was 100%, the “Pre-emergence action against SETVI” value ([2]; 80 g/ha) was 100% and the “Pre-emergence action against AMARE” value ([3]; 80 g/ha) was 100%. The “Pre-emergence action against ECHCG” value ([4]; 80 g/ha) was 100%, the “Post-emergence action against AMARE” value [5] was 100% and the “Post-emergence action against ABUTH” value [6] was 90%. The “Post-emergence action against ECHCG” value [7] was 80%.

In the case of `Cc1nn(C)c(O)c1C(=O)c1ccc(C(F)(F)F)c2c1OCC[S+]2[O-]` (stereo not shown) [Example 1-40], the “Pre-emergence action against ABUTH” value ([1]; 80 g/ha) is reported as 100%, the “Pre-emergence action against SETVI” value ([2]; 80 g/ha) is reported as 100% and the “Pre-emergence action against AMARE” value ([3]; 80 g/ha) is reported as 100%. For the same molecule, the “Pre-emergence action against ECHCG” value ([4]; 80 g/ha) was 80%, the “Post-emergence action against AMARE” value [5] was 80% and the “Post-emergence action against ABUTH” value [6] was 80%. For the same molecule, the “Post-emergence action against ECHCG” value [7] was 90%.

`Cn1ncc(C(=O)c2ccc(C(F)(F)F)c3c2OCCS3(=O)=O)c1O` [Example 1-45] was tested, and the “Pre-emergence action against ABUTH” value ([1]; 80 g/ha) was 100%, the “Pre-emergence action against SETVI” value ([2]; 80 g/ha) was 100% and the “Pre-emergence action against AMARE” value ([3]; 80 g/ha) was 100%. The “Pre-emergence action against ECHCG” value ([4]; 80 g/ha) was 100% and the “Post-emergence action against AMARE” value [5] was 100%.

`CCn1ncc(C(=O)c2ccc(C(F)(F)F)c3c2OCCS3(=O)=O)c1O` [Example 1-50] was tested, and the “Pre-emergence action against ABUTH” value ([1]; 80 g/ha) was 100%, the “Pre-emergence action against SETVI” value ([2]; 80 g/ha) was 100% and the “Pre-emergence action against AMARE” value ([3]; 80 g/ha) was 100%. The “Pre-emergence action against ECHCG” value ([4]; 80 g/ha) was 100%, the “Post-emergence action against AMARE” value [5] was 100% and the “Post-emergence action against ABUTH” value [6] was 90%. The “Post-emergence action against ECHCG” value [7] was 80%.

In the case of `Cc1nn(C)c(O)c1C(=O)c1ccc(C(F)(F)F)c2c1OCCS2(=O)=O` [Example 1-55], the “Pre-emergence action against ABUTH” value ([1]; 80 g/ha) is reported as 100%, the “Pre-emergence action against AMARE” value ([3]; 80 g/ha) is reported as 100% and the “Pre-emergence action against ECHCG” value ([4]; 80 g/ha) is reported as 100%. The “Post-emergence action against AMARE” value [5] was 100%, the “Post-emergence action against ABUTH” value [6] was 90% and the “Post-emergence action against ECHCG” value [7] was 100%.

For `Cn1nc(C2CC2)c(C(=O)c2ccc(C(F)(F)F)c3c2OCC[S+]3[O-])c1O` (stereo not shown) [Example 1-116], the “Pre-emergence action against ABUTH” value ([1]; 80 g/ha) was 80%, the “Pre-emergence action against SETVI” value ([2]; 80 g/ha) was 100% and the “Pre-emergence action against AMARE” value ([3]; 80 g/ha) was 100%. The “Pre-emergence action against ECHCG” value ([4]; 80 g/ha) was 80%, the “Post-emergence action against AMARE” value [5] was 90% and the “Post-emergence action against ABUTH” value [6] was 90%. The “Post-emergence action against ECHCG” value [7] was 100%.

`Cn1ncc(C(=O)c2ccc(C(F)(F)C(F)(F)F)c3c2OCS3)c1O` [Example 1-128] was tested, and the “Pre-emergence action against ABUTH” value ([1]; 80 g/ha) was 90%, the “Pre-emergence action against SETVI” value ([2]; 80 g/ha) was 100% and the “Pre-emergence action against AMARE” value ([3]; 80 g/ha) was 100%. The “Pre-emergence action against ECHCG” value ([4]; 80 g/ha) was 90%, the “Post-emergence action against AMARE” value [5] was 80% and the “Post-emergence action against ECHCG” value [7] was 90%.
